Assay results from patent publication US5491145A, “Imidazopyridazines, their production and use” (Takeda Chemical Industries, Ltd., priority 1992, dated 1996).

Test system: PAF-induced bronchoconstriction in guinea pigs
Assay: Effect on platelet activating factor (PAF)-induced guinea pig bronchoconstriction (Konzett-Roessler method)
Type: in vivo, guinea pig (male Hartley)
Conditions: administered orally one hour before PAF (1 μg/kg i.v.)
Description: Effect on platelet activating factor (PAF)-induced guinea pig bronchoconstriction Male Hartley guinea pigs (body weights about 500 g) were used. Bronchoconstriction induced by PAF, 1 μg/kg i.v., in guinea pigs was measured using to the method of Konzett-Roessler. With the guinea pig immobilized in the dorsal position, tracheotomy was performed under urethane (1.5 g/kg i.v.) anesthesia and the trachea was connected through a cannula to a respirator. The side branch of the tracheal cannula was connected to a transducer (model 7020, Ugobasile). With the volume of air per feed being controlled at 3-7 ml, the ventilation frequency at 70/min. and the pulmonary loading pressure at 10 cm H2 O, the volume of overflow air was recorded on a […], San-ei Sokki) through the transducer. After administration of gallamine (1 mg/kg i.v.), PAF, 1 μg/kg, dissolved in physiological saline was administered through a jugular vein cannula and the induced bronchoconstriction was recorded for 15 minutes. The drug suspended in a 5% solution of gum arabic was administered orally in a dose of 10 mg/kg or 3 mg/kg one hour before PAF treatment: The results are presented in Table 1.

Row | Compound | % Inhibition of PAP-induced bronchoconstriction (3 mg/kg) | % Inhibition of PAP-induced bronchoconstriction (10 mg/kg)
1 | 6-(2,2-diethyl-5-sulfamoyl-1-pentyloxy)-7-methylimidazo[1,2-b]pyridazine [Example 17] | 54% | 
2 | Cc1cc2nccn2nc1OCC(C)(C)CS(N)(=O)=O [Example 3, 6-(2,2-dimethyl-3-sulfamoyl-1-propoxy)-7-methylimidazo[1,2-b]pyridazine] |  | 76%
3 | Cc1cc(OCC(C)(C)CS(N)(=O)=O)nn2ccnc12 [Example 5, 6-(2,2-dimethyl-3-sulfamoyl-1-propoxy)-8-methylimidazo[1,2-b]pyridazine] |  | 90%
4 | Cc1cc2nccn2nc1OCC(C)(C)CCS(N)(=O)=O [Example 11, 6-(2,2-dimethyl-4-sulfamoyl-1-butoxy)-7-methylimidazo[1,2-b]pyridazine] | 58% | 71%
5 | CCC(CC)(COc1nn2ccnc2cc1C)CS(N)(=O)=O.Cl [Example 15, 6-(2,2-diethyl-3-sulfamoyl-1-propoxy)-7-methylimidazo[1,2-b]pyridazine hydrochloride] | 80% | 
6 | CCC(C)(COc1nn2ccnc2cc1C)CS(N)(=O)=O (stereo not shown) [Example 20] | 57% | 
